From US12258377B2 (Scancell Limited, priority 2012, dated 2025)
Square brackets hold non-standard residues; d marks the D form. Ends that are not written are not given here. Cit = NC(=O)NCCC[C@H](N)C(=O)O

Columns and labels:
[1] = tested on: splenocytes; test: Ex vivo elispot assay on splenocytes of immunised HLA-DR4 transgenic mice; assay type: in vivo; conditions: for IFNγ elispot response to citrullinated peptide, mean / IFNγ elispot response to wild type peptide, mean: day 14 splenocytes; for IFNγ elispot response against vimentin 28-49 triple, double and single citrullinated peptides: peptide immunisation, FIG. 11; for IL-10 elispot responses: against wild type and citrullinated peptides; for IFNg elispot response to citrullinated peptide over unmodified peptide or background control: citrullinated peptides 25 ug s.c. in CpG and MPLA, FIG. 34
Procedure: (§1) C57BL/6 mice (Charles River, UK), HLA-DR4 mice (Taconic, USA), HHDII mice (Pasteur institute, France) and HHDII/DRI mice (Pasteur institute, France) were used, aged between 8 and 12 weeks, and cared for by the staff at Nottingham Trent University. All work was carried out under a Home Office project license. Peptides were dissolved in 10% Dimethylformamide to 1 mg/ml and then emulsified (a series of dilutions) with different adjuvants: CpG and MPLA 6 μg/mouse of each (Invivogen, UK), Incomplete Freund's […] (Sigma, UK), and GMCSF 10 μg/mouse (Peprotech, UK). Peptides (25 μg/mouse) were injected subcutaneously at the base of the tail. DNA (1 μg/mouse) was coated onto 1.0 μm gold particles (BioRad, Hemel Hempstead, UK) using the manufacturer's instructions and administered intradermally by genegun (BioRad). Homspera (10 nM/mouse) (PeptideSynthetics, UK) was injected intradermally with genegun immunisation. Mice were immunized at either day 0 for peptide immunisation or days, 0, 7, and 14 for peptide and genegun immunisation. Spleens were removed for analysis at day 14 for peptide and day 20 for peptide or genegun immunisation unless stated otherwise. 400 μg Anti-CD25 antibody (PC61) was administered i.p. in saline 3 days prior to the immunisation. 200 μg Anti-CTLA-4 antibody (UC 10-4F, 10-11) was administered i.p. in saline at day 7 and 14 with either genegun or peptide immunisation.
(§2) Elispot assays were performed using murine IFNγ, IL-17 and IL-10 capture and detection reagents according to the manufacturer's instructions (Mabtech, Sweden). In brief, anti-IFNγ, IL-17 and IL-10 antibodies were coated onto wells of 96-well Immobilin-P plate. Synthetic peptides (at a variety of concentrations) and 5×10^5 per well splenocytes were added to the wells of the plate in triplicate. Tumour target cells were added where relevant at 5×10^4/well in triplicate and plates incubated for 40 hrs at 37° C. After incubation, captured IFNγ, […], IL-17 and IL-10 were detected by biotinylated anti-IFNγ, IL-17 and IL-10 antibodies and developed with a strepatavidin alkaline phosphatase and chromogenic substrate. Spots were analysed and counted using an automated plate reader (Cellular Technologies Ltd). Functional avidity was calculated as the concentration mediating 50% maximal effector function using a graph of effector function versus peptide concentration.

[2] = tested on: splenocytes; test: Ex vivo elispot assay on splenocytes of immunised HLA-DR1 / HLA-A2/DR1 (HHDII/DR1) transgenic mice; assay type: in vivo; conditions: combination of 3 citrullinated peptides (3×10 μg) with CpG and MPLA; day 14; HLA-DR1 transgenic mice
[3] = tested on: PBMC; test: Proliferation assay of PBMC from cancer patients; assay type: cell-based, human; conditions: PBMC stimulated with 10 μg/ml peptide for 4, 7 and 11 days, 3H-thymidine
Procedure: PBMC were isolated from freshly drawn heparinised blood by Ficol-Hypaque (Sigma) gradient centrifugation. PBMC (1.5×10^6 cells/well) were stimulated with single peptides (final concentration 10 μg/ml) in RPMI containing 5% pooled autologous human serum, 2 mM glutamine, 20 mM HEPES and Penicillin-streptomycin (1%) in a final volume of 2 ml. Stimulation with purified protein derivative, PPD (final concentration 10 μg/ml) served as a positive control for the proliferative capacity of PBMC. As a negative control PBMC were incubated with medium alone. The PBMC were cultured at 37° C. in an atmosphere of 5% CO2 for 4, 7 and 11 days. To assess proliferation at these times points 100 μl in triplicate from each culture was aliquoted into a round bottom well of a 96 well plate and ^3H-thymidine added (0.0185 MBq/well) and incubated at 37° C. for a further 8 hours. The cultures were harvested onto unifilter plates and incorporation of ^3H-thymidine was determined by β-scintillation counting. The results were assessed by calculating the stimulation index (SI) as the ratio of the mean of counts per minute (cpm) of epitope-stimulated to the mean of unstimulated cultures. The proliferative assay was considered positive when SI >2.5.

[4] = tested on: splenocytes; test: Ex vivo elispot assay on splenocytes of immunised C57B1 mice; assay type: in vivo, C57BL/6 mice; conditions: combination of 3 citrullinated peptides (3×10 μg) with CpG and MPLA; day 14; C57B1/6 mice
Procedure: as §1, §2

[5] = tested on: B16F1-DR4 cells; test: Tumour challenge with B16F1-DR4 cells; assay type: in vivo, HLA-DR4 transgenic mice; conditions: peptide 25 μg in CpG and MPLA s.c. or DNA via gene gun, days 4, 11, 18; versus unimmunised control
Procedure: For tumour challenge experiments mice were challenged with 2.5×10^4 B16 HHDII NYESO/TAP2 siβ2m 1F10 cells or B16 DR4 2E7 cells subcutaneously on the right flank 3 days prior to primary immunisation and then were immunised as above. Anti-IFNγ antibody (300 μg/dose), anti-IL-17 antibody (200 μg/dose) and anti-HLA-DR antibody (300 μg/dose) were administered i.p. in saline at days 2, 7, 11 and 14 post tumour implant. Anti-CD4 antibody (500 μg/dose) was administered i.p.in saline at days 2 and 8 post tumour implant. Tumour growth was monitored at 3-4 days intervals and mice were humanely euthanized once tumour reached ≥10 mm in diameter.

[6] = tested on: splenocytes; test: Ex vivo elispot assay on splenocytes of immunised HLA-DR1 / HLA-A2/DR1 (HHDII/DR1) transgenic mice; assay type: in vivo
Procedure: as §1, §2

[7] = 25 μg peptide with CpG and MPLA day 0, day 14, peptide 5 μM
[8] = 25 μg peptide with CpG and MPLA day 0, peptide 5 μM
[9] = 25 μg peptide with CpG and MPLA day 0, day 14
[10] = 25 μg peptide with CpG and MPLA day 0, day 14, recall peptide not specified
[11] = 25 μg in MPLA and CPG s.c. days 0, 7, 14, HLA-DR1 transgenic mice

mouse vim 415 cit: murine vimentin 415-433 citrullinated peptide (LPTFSSLNL[Cit]ETNLESLPL; UniProt P20152 415-433, looked up, fragment)
influence of natural Treg depletion (anti-CD25 mAb) on the response ([1]; 25 μg peptide day 0, PC61 three days before, IFNγ elispot day 14): no influence on the frequency or the avidity of the response

RLRSSVPGVRLLQDSVDFS [Vimentin 10]
IL-17 response, screening of citrullinated 20 mer peptides [2]: 350 spots/million splenocytes

SAVRLRSSVPGVR [wild type vim 65-77 peptide]
IL-17 elispot response to citrullinated peptide, mean [1, 7]: weak
IL-17 elispot response to wild type peptide, mean [1, 7]: weak
IFNγ elispot response to citrullinated peptide, mean [1, 8]: weak
IFNγ elispot response to wild type peptide, mean [1, 8]: weak
patients showing a proliferative response (SI >2.5) ([3]; listed as vim 65): Four out of eight
patients showing a proliferative response (SI >2.5) ([3]; listed as vim 65-77): 4/9

EKLQEEMLQREEAENTLQS [Vimentin 19]
IL-17 response, screening of citrullinated 20 mer peptides [4]: ~400 spots/million splenocytes

vim 28 and 36 citrullinated peptide: vimentin 28-49 peptide citrullinated at positions 28 and 36 ([Cit]SYVTTST[Cit]TYSLGSALRPSTS; UniProt P08670 28-49, looked up, fragment)
IFNγ elispot response against vimentin 28-49 triple, double and single citrullinated peptides [1]: responded to the triple

RSYVTTSTRTYSLGSALRPSTS [wild type vim 28-49]
IL-10 elispot responses [1, 9]: No significant IL-10 responses
IL-2 elispot responses [1, 10]: weak
IL-17 elispot responses [1, 10]: weak
IFNγ elispot response to citrullinated peptide, mean [1, 8]: 1,100 /million splenocytes
IFNγ elispot response to wild type peptide, mean [1, 8]: 700 /million splenocytes
patients showing a proliferative response (SI >2.5) [3]: Two of eight
patients showing a proliferative response (SI >2.5) ([3]; listed as Wild type vim 28-49 peptide): 2/11
anti-tumour response / survival [5]: anti-tumour response that almost reached significance

Vim 28-49 only citrullinated at position 28: vimentin 28-49 peptide with citrulline only at position 28 ([Cit]SYVTTSTRTYSLGSALRPSTS; UniProt P08670 28-49, looked up, fragment)
IFNγ elispot response against vimentin 28-49 triple, double and single citrullinated peptides [1]: gave a response to the tri-citrullinated peptide and the Vim 45 citrullinated peptide

AQKKLKLVRTSPEYGMP
immune response after immunisation ([6]; HLA-DR1 transgenic mice): failed to stimulate any immune response

VPAYFNDAQRQATKDA [BiP 172-186]
IFNg elispot response to citrullinated peptide over unmodified peptide or background control [1]: significant responses

YSCVGVFKNGRVEII [BiP 39-53]
IFNg elispot response to citrullinated peptide over unmodified peptide or background control [1]: significant responses

EAENTLQSFRQDVDNASLA [Vimentin 20]
IL-17 response, screening of citrullinated 20 mer peptides [4]: ~400 spots/million splenocytes

AQKKLKLVcitTSPEYGMP (AQKKLKLV[Cit]TSPEYGMP)
IFNγ/IL-17 response to the citrullinated peptide, mean [6, 11]: 200 spots/million splenocytes
IFNγ/IL-17 response to the wild type peptide [6, 11]: no response
response in presence of MHC class II blocking mab ([6]; IFNγ elispot, HLA-A2/DR1 mice): blocked

LPNFSSLNLRETNLDSLPL [wild type vim 415-433 peptide]
IL-10 response, mean ([1]; 25 μg peptide in MPLA and CPG s.c., day 14, FIG. 30): 580 spots/million splenocytes
IL-10 elispot responses [1, 9]: No significant IL-10 responses
IL-2 elispot response to citrullinated peptide, mean [1, 7]: weak
IL-17 elispot response to wild type peptide, mean [1, 7]: failed to stimulate a significant IFNγ or IL-17 response
IFNγ elispot response to wild type peptide, mean [1, 8]: failed to stimulate a significant IFNγ or IL-17 response
patients showing a proliferative response (SI >2.5) [3]: 8/11
patients showing a proliferative response (SI >2.5) ([3]; listed as unmodified vim 415): Six of eleven

RKKLSELLRYYTSASGDEMVSL [HSP90 456-477]
IFNg elispot response to citrullinated peptide over unmodified peptide or background control [1]: significant responses

RAPFDLFENRKKKNN [HSP90 346-360]
IFNg elispot response to citrullinated peptide over unmodified peptide or background control [1]: significant responses

KLATEYMSSARSLSSEEK [ING4 44-58]
IFNg elispot response to citrullinated peptide over unmodified peptide or background control [1]: significant responses
